# Measurements reported in ChEMBL document CHEMBL5726468, “Heterocyclic compounds and methods of use thereof” (2019).
# “And” between values parts separate entries of the source, which are not always exact repeats. Equal values may be shown once.
# Test: Huh 7.5.1 ATPlite assay : This example demonstrates the EC50 and CC50 values against HCV according to the HCVcc-RLuc reporter assay described in Example 5 and the cytotoxicity using the Huh 7.5.1 ATPlite assay for compounds in accordance with an embodiment of the invention.
SMILES,EC50 (Huh-7.5.1) [nM],EC50
Cc1cccc(Cl)c1C1=NC(CN2CCC(C(=O)NCCCN3CCC(C)(C)CC3)CC2)C(C)O1 (stereo not drawn),220,
Cc1ccccc1-c1nc(CC2CCC[C@@H](C(=O)CCCCN3C[C@H](C)C[C@H](C)C3)C2)c(C)o1 (stereo partly drawn),410,
Cc1cc(C)cc(C2=NC(CN3CCC(C(=O)NCCCN4C[C@H](C)C[C@H](C)C4)CC3)C(C)O2)c1 (stereo partly drawn),36,
Cc1ccccc1C1=NC(CN2CCC(C(=O)NCCCN3CCC(C)CC3)CC2)C(C)O1 (stereo not drawn),400,
COc1cccc(Br)c1C1=NC(CN2CCC(C(=O)NCCCN3C[C@H](C)C[C@H](C)C3)CC2)C(C)O1 (stereo partly drawn),213,
CC1OC(c2ccccc2Cl)=NC1CN1CCC(C(=O)NCCCN2C[C@H](C)C[C@H](C)C2)CC1 (stereo partly drawn),86,
Cc1cccc(Cl)c1C1=NC(CN2CCC(C(=O)NCCCN3C[C@H](C)C[C@H](C)C3)CC2)C(C)O1 (stereo partly drawn),14,
Cc1ccccc1-c1nc(CN2CCC(C(=O)NCCCN3C[C@H](C)C[C@H](C)C3)CC2)c(C)s1,38,
Cc1ccc(C2=NC(CN3CCC(C(=O)NCCCN4C[C@H](C)C[C@H](C)C4)CC3)C(C)O2)cc1C (stereo partly drawn),98,
CC1OC(c2c(F)cccc2Cl)=NC1CN1CCC(C(=O)NCCCN2C[C@H](C)C[C@H](C)C2)CC1 (stereo partly drawn),334,
Cc1ccccc1-c1nc(CN2CCC[C@@H](C(=O)NCCCN3C[C@H](C)C[C@H](C)C3)C2)c(C)o1,304,
CC1OC(c2c(F)cccc2F)=NC1CN1CCC(C(=O)NCCCN2C[C@H](C)C[C@H](C)C2)CC1 (stereo partly drawn),624,
C[C@@H]1C[C@H](C)CN(CCCNC(=O)C2CCN(Cc3oc(-c4cc(C(F)(F)F)cc(C(F)(F)F)c4)nc3C(F)(F)F)CC2)C1,153,
CC1CCCN(CCCNC(=O)C2CCN(Cc3oc(-c4cc(C(F)(F)F)cc(C(F)(F)F)c4)nc3C(F)(F)F)CC2)C1 (stereo not drawn),341,
COc1cccc(F)c1C1=NC(CN2CCC(C(=O)NCCCN3C[C@H](C)C[C@H](C)C3)CC2)C(C)O1 (stereo partly drawn),455,
Cc1cc(-c2nc(CN3CCC(C(=O)NCCCN4C[C@H](C)C[C@H](C)C4)CC3)co2)ccc1F,38,
Cc1cc(C)c(C2=NC(CN3CCC(C(=O)NCCCN4C[C@H](C)C[C@H](C)C4)CC3)C(C)O2)c(C)c1 (stereo partly drawn),190,
CCN(CC)CCCCNC(=O)C1CCN(CC2N=C(c3cc(OC)cc(OC)c3)OC2C)CC1 (stereo not drawn),6550,
CC1OC(c2ccc(Cl)cc2)=NC1CN1CCC(C(=O)NCCCN2C[C@H](C)C[C@H](C)C2)CC1 (stereo partly drawn),110,
CC1OC(c2ccc(F)cc2)=NC1CN1CCC(C(=O)NCCCN2C[C@H](C)C[C@H](C)C2)CC1 (stereo partly drawn),53,
CC1OC(c2c(Cl)cccc2Cl)=NC1CN1CCC(C(=O)NCCCN2C[C@H](C)C[C@H](C)C2)CC1 (stereo partly drawn),221,
Cc1ccccc1C1=NC(CN2CCC(C(=O)NCCN3CCCCC3)CC2)C(C)O1 (stereo not drawn),1200,
CC1OC(c2c(Cl)cccc2Br)=NC1CN1CCC(C(=O)NCCCN2C[C@H](C)C[C@H](C)C2)CC1 (stereo partly drawn),,178 nM and 386 nM
COc1cc(OC)cc(C2=NC(CN3CCC(C(=O)NCCCN4CC(C)CC(C)C4)CC3)C(C)O2)c1 (stereo not drawn),680,
CCc1ccccc1C1=NC(CN2CCC(C(=O)NCCCN3C[C@H](C)C[C@H](C)C3)CC2)C(C)O1 (stereo partly drawn),140,
Cc1ccccc1C1=NC(CN2CCC(C(=O)N3CCN(CCN(C)C)CC3)CC2)C(C)O1 (stereo not drawn),6100,
CC1OC(c2ccc(Cl)c(Cl)c2)=NC1CN1CCC(C(=O)NCCCN2C[C@H](C)C[C@H](C)C2)CC1 (stereo partly drawn),13,
Cc1ccc(C2=NC(CN3CCC(C(=O)NCCCN4C[C@H](C)C[C@H](C)C4)CC3)C(C)O2)cc1 (stereo partly drawn),100,
